The results in this text go back to patent publication US20230399287A1, “NOVEL COMPOUNDS” (Sitryx Therapeutics Limited, priority 2020, published 2023).

Structures are written as SMILES. Structures can show the parent of a compound that is named as a salt.

In one data set the test system is IL-1β. The data set can be described thus: THP-1 AlphaLISA IL-1β cytokine assay. To be noted: LPS 24 hr then Nigericin 1 hour. The format is cell-based. As to the method:
(§1) Measuring Inhibitory Effects on IL-1V and IL-6 Cytokine Output from THP-1s
(§2) The cytokine inhibition profiles of compounds of formula (I) were determined in a differentiated THP-1 cell assay. All assays were performed in RPMI-1640 growth medium (Gibco), supplemented with 10% fetal bovine serum (FBS; Gibco), 1% penicillin-streptomycin and 1% sodium pyruvate unless specified otherwise. The IL-1β and IL-6 cytokine inhibition assays were run in a background of differentiated THP-1 cells as described below. All reagents described were from Sigma-Aldrich unless specified otherwise. Compounds were prepared as 10 mM DMSO stocks.
(§3) THP-1 cells were expanded as a suspension up to 80% confluence in appropriate growth medium. Cells were harvested, suspended, and treated with an appropriate concentration of phorbol 12-myristate 13-acetate (PMA) over a 72 hr period (37° C./5% CO2).
(§4) Following 72 hrs of THP-1 cell incubation, cellular medium was removed and replaced with fresh growth media containing 1% of FBS. Working concentrations of compounds were prepared separately in 10% FBS treated growth medium and pre-incubated with the cells for 30 minutes (37° C./5% CO2). Following the 30 minute compound pre-incubation, THP-1s were treated with an appropriate concentration of LPS and the THP-1s were subsequently incubated for a 24 hr period (37° C./5% CO2). An appropriate final concentration of Nigericin was then dispensed into the THP-1 plates and incubated for 1 hour (37° C./5% CO2) before THP-1 supernatants were harvested and collected in separate polypropylene 96-well holding plates.
(§5) Reagents from each of the IL-1β and IL-6 commercial kits (Perkin Elmer) were prepared and run according to the manufacturer's instructions. Subsequently, fluorescence signal detection in a microplate reader was measured (EnVision® Multilabel Reader, Perkin Elmer).
(§6) Percentage inhibition was calculated per cytokine by normalising the sample data to the high and low controls used within each plate (+/−LPS respectively). Percentage inhibition was then plotted against compound concentration and the 50% inhibitory concentration ([…]) was determined from the resultant concentration-response curve.

Another data set relates to IL-6. The data set can be described thus: THP-1 AlphaLISA IL-6 cytokine assay. Particulars: LPS 24 hr then Nigericin 1 hour. The format is cell-based. As to the method:
as §1, §2, §3, §4, §5, §6

The test system of the next data set is NRF2. The data set can be described thus: NRF2 +/- GSH activation assay (DiscoverX PathHunter NRF2 translocation kit). Particulars: for EC50: U2OS PathHunter cells; for NRF2 activation Emax / Emax: normalised to dimethyl fumarate high control. The format is cell-based.
For data set [1], the system named is hepatocytes. The data set can be described thus: Hepatocyte stability assay (human). The format is in vitro ADME. To be noted: 10 μM compound, 60 min. The source says: (§7) Defrosted cryo-preserved hepatocytes (viability>70%) were used to determine the metabolic stability of a compound via calculation of intrinsic clearance (Clint; a measure of the removal of a compound from the liver in the absence of blood flow and cell binding). Clearance data are particularly important for in vitro work as they can be used in combination with in vivo data to predict the half-life and oral bioavailability of a drug.
(§8) The metabolic stability in hepatocytes assay involved a time-dependent reaction using both positive and negative controls. The cells must be pre-incubated at 37° C. then spiked with test compound (and positive control); samples taken at pre-determined time intervals were analysed to monitor the change in concentration of the initial drug compound over 60 minutes. A buffer incubation reaction (with no hepatocytes present) acted as a negative control and two cocktail solutions, containing compounds with known high and low clearance values (verapamil/7-hydroxycoumarin and propranolol/diltiazem), acted as positive controls. • 1. The assay was run with a cell concentration of 0.5×10^6 cells/mL in Leibovitz buffer. • 2. All compounds and controls were run in duplicate. • 3. Compound concentration was 10 μM. • 4. All compounds and controls were incubated with both cells and buffer to show turnover is due to hepatic metabolism. • 5. All wells on the incubation plate had 326.7 μL of either cells or buffer added. • 6. Prior to assay, cell and buffer-only incubation plates were preincubated for 10 mins at 37° C. • 7. The assay was initiated by adding compounds, 3.3 μL of 1 mM in 10% DMSO-90% Buffer; final DMSO concentration is 0.1%. • 8. Samples were taken at regular timepoints (0, 5, 10, 20, 40, 60 min) until 60 mins. • 9. Sample volume was 40 μL and added to 160 μL of crash solvent (acetonitrile with internal standard) and stored on ice. • 10. At the end of the assay, the crash plates were centrifuged at 3500 rpm for 20 mins at 4° C. • 11. 80 μL of clear supernatant was removed and mixed with 80 μL of deionised water before being analysed by LC-MS/MS.
(§9) Raw LC-MS/MS data were exported to, and analysed in, Microsoft Excel for determination of intrinsic clearance. The percentage remaining of a compound was monitored using the peak area of the initial concentration as 100%. Intrinsic clearance and half-life values were calculated using a graph of the natural log of percentage remaining versus the time of reaction in minutes. Half-life (min) and intrinsic clearance (Clint in μL min^−1 10^−6 cells) values were calculated using the gradient of the graph (the elimination rate constant, k) and Equations 1 and 2.

The subject of data set [2] is hepatocytes. The data set can be described thus: Hepatocyte stability assay (mouse). The format is in vitro ADME. Particulars: 10 μM compound, 60 min.
Description: as §7, §8, §9

The mark [3] stands for this setting: Homo sapiens, THP-1, differentiated THP-1 cells.

As to `C=C(CC(=O)OC1(c2ccc3cc(Br)ccc3c2)CCC1)C(=O)O` [Example 54, 4-(1-(6-bromonaphthalen-2-yl)cyclobutoxy)-2-methylene-4-oxobutanoic acid], the IC50 in the data set with IL-1β (setting [3]) is greater than 100 µM; with IL-6 (setting [3]), 18.1 µM.
The corresponding values for `C=C(CC(=O)OC1(c2ccc(-c3ccc(F)cc3)cc2)CCC1)C(=O)O` [Example 16, 4-(1-(4′-fluoro-[1,1′-biphenyl]-4-yl)cyclobutoxy)-2-methylene-4-oxobutanoic acid] are greater than 100 µM and 21.5 µM.
For `C=C(CC(=O)OC1(c2ccc(C(F)(F)F)cc2Cl)CCC1)C(=O)O` [Example 6, 4-(1-(2-chloro-4-(trifluoromethyl)phenyl)cyclobutoxy)-2-methylene-4-oxobutanoic acid], in that order: 45.4 µM and greater than 100 µM.
For `C=C(CC(=O)OC1(c2ccc(C(F)(F)F)cc2)CC(C(F)(F)F)C1)C(=O)O` (single isomer, unassigned) [Example 43, 2-methylene-4-oxo-4-(3-(trifluoromethyl)-1-(4-(trifluoromethyl)phenyl)cyclobutoxy)butanoic acid], the half-maximal inhibitory concentration (IC50) is 83.5 µM with IL-1β (setting [3]) and greater than 100 µM with IL-6 (setting [3]).
Regarding `C=C(CC(=O)OCCCCCCCC)C(=O)O` [4-octyl itaconate, reference compound], the values for the IC50 in the data set with IL-1β (differentiated THP-1 cells) and in the data set with IL-6 (differentiated THP-1 cells) were 38.3 µM and 20.3 µM, respectively. Further, the EC50 in the data set on NRF2 (+GSH) was found to be 28.9 µM; in the data set on NRF2 (−GSH), 22.1 µM. In addition, the “NRF2 activation Emax” value is listed as 148% in the data set with NRF2 (+GSH) and 165% with NRF2 (−GSH). For the same compound, the Clint in the data set on hepatocytes [1] is 401 μL min^−1 10^−6 cells; in the data set on hepatocytes [2] it was 351 μL min^−1 10^−6 cells. The T½ with hepatocytes [1] and in the data set on hepatocytes [2] was 0.067 h throughout.
`C=C(CC(=O)OC1(c2ccc(OC(F)(F)F)cc2)CCC1)C(=O)O` [Example 15, 2-methylene-4-oxo-4-(1-(4-(trifluoromethoxy)phenyl)cyclobutoxy)butanoic acid]: the IC50 in the data set on IL-1β (setting [3]) is 15.9 µM; with IL-6 (setting [3]), greater than 100 µM.
Turning to `C=C(CC(=O)OC1(C#Cc2ccc(C(F)(F)F)cc2)CCC1)C(=O)O` [Example 60, 2-methylene-4-oxo-4-(1-((4-(trifluoromethyl)phenyl)ethynyl)cyclobutoxy)butanoic acid], the half-inhibitory concentration (IC50) was greater than 100 µM in the data set on IL-1β (setting [3]) and 34.1 µM in the data set on IL-6 (setting [3]).
Regarding `COC(=O)/C=C/C(=O)OC` [dimethyl fumarate, reference compound], the IC50 with IL-1β (differentiated THP-1 cells) was 14.4 µM; in the data set with IL-6 (setting [3]), 9.3 µM. The values for the Emax in the data set on NRF2 (+GSH) and with NRF2 (−GSH) were 19% and 100%, respectively. In addition, the 50% effective concentration (EC50) was greater than 100 µM in the data set on NRF2 (Homo sapiens, U2OS, +GSH) and 6 µM with NRF2 (Homo sapiens, U2OS, −GSH).
For `C=C(CC(=O)OC1(c2ccc(C(F)(F)c3ccccc3)cc2)CCC1)C(=O)O` [Example 28, 4-(1-(4-(difluoro(phenyl)methyl)phenyl)cyclobutoxy)-2-methylene-4-oxobutanoic acid], the IC50 with IL-1β (setting [3]) was greater than 31.6 µM; in the data set on IL-6 (setting [3]), 19.6 µM.
Regarding `C=C(CC(=O)OC1(c2ccc(C)c(Cl)c2)CCC1)C(=O)O` [Example 14, 4-(1-(3-chloro-4-methylphenyl)cyclobutoxy)-2-methylene-4-oxobutanoic acid], the IC50 is 24.5 µM in the data set with IL-1β (setting [3]) and greater than 100 µM in the data set with IL-6 (setting [3]).
Take `C=C(CC(=O)OC(CC)c1ccc(C(F)(F)F)cc1)C(=O)O` (stereo not drawn) [Example 10, 2-methylene-4-oxo-4-(1-(4-(trifluoromethyl)phenyl)propoxy)butanoic acid]: the concentration for half-maximal inhibition (IC50) was 5.8 µM in the data set with IL-1β (setting [3]) and greater than 100 µM in the data set on IL-6 (setting [3]). The Emax with NRF2 (+GSH) came to 13%; in the data set on NRF2 (−GSH) it was 0%. Moreover, the EC50 in the data set with NRF2 (Homo sapiens, U2OS, +GSH) is greater than 100 µM; with NRF2 (Homo sapiens, U2OS, −GSH) it was greater than 100 µM.
In the case of `C=C(CC(=O)OC)C(=O)OC` [dimethyl itaconate, reference compound], the IC50 is greater than 100 µM in the data set on IL-1β (setting [3]) and 100 µM in the data set with IL-6 (setting [3]). Further, the Emax is 77% in the data set on NRF2 (+GSH) and 137% in the data set on NRF2 (−GSH).
For the compound `C#CC(OC(=O)CC(=C)C(=O)O)c1ccc(C(F)(F)F)cc1` (single isomer, unassigned) [Example 37, 2-methylene-4-oxo-4-((1-(4-(trifluoromethyl)phenyl)prop-2-yn-1-yl)oxy)butanoic acid], the half-maximal inhibitory concentration (IC50) is 14.5 µM with IL-1β (setting [3]) and greater than 31.6 µM with IL-6 (differentiated THP-1 cells). The Clint in the data set with hepatocytes [1] is less than 3 μL min^−1 10^−6 cells; in the data set on hepatocytes [2], 34 μL min^−1 10^−6 cells. Further, the T½ is greater than 7.67 h in the data set on hepatocytes [1] and 0.8 h in the data set with hepatocytes [2].
For `C=C(CC(=O)O[C@H](C)c1ccc(C(F)(F)F)cc1)C(=O)O` [Example 3, (R)-2-methylene-4-oxo-4-(1-(4-(trifluoromethyl)phenyl)ethoxy)butanoic acid], the IC50 was 33.6 µM in the data set on IL-1β (setting [3]) and greater than 56.2 µM in the data set with IL-6 (setting [3]).
`C=C(CC(=O)OCc1ccc(C(F)(F)F)cn1)C(=O)O` [Example 56, 2-methylene-4-oxo-4-((5-(trifluoromethyl)pyridin-2-yl)methoxy)butanoic acid]: the results for the IC50 in the data set with IL-1β (setting [3]) and in the data set on IL-6 (setting [3]) were 46.2 µM and greater than 100 µM, respectively.
Regarding `C#CC(OC(=O)CC(=C)C(=O)O)c1ccc(C(F)(F)F)cc1` (single isomer, unassigned) [Example 38, 2-methylene-4-oxo-4-((1-(4-(trifluoromethyl)phenyl)prop-2-yn-1-yl)oxy)butanoic acid], the IC50 is 9.4 µM in the data set on IL-1β (differentiated THP-1 cells) and greater than 100 µM in the data set with IL-6 (differentiated THP-1 cells). Further, the Clint in the data set with hepatocytes [1] turned out to be 7 μL min^−1 10^−6 cells; with hepatocytes [2], 13 μL min^−1 10^−6 cells. In addition, the T½ with hepatocytes [1] was found to be 3.05 h; in the data set on hepatocytes [2], 2.72 h.
For `C=C(CC(=O)OC1(c2ccc(C(F)(F)F)cc2)CN(C)C1)C(=O)O` [Example 48, 4-((1-methyl-3-(4-(trifluoromethyl)phenyl)azetidin-3-yl)oxy)-2-methylene-4-oxobutanoic acid], the results for the IC50 with IL-1β (setting [3]) and in the data set on IL-6 (setting [3]) were 58.4 µM and greater than 31.6 µM, respectively.
For `C=C(CC(=O)OC1(c2cnc(C(F)(F)F)cn2)CCC1)C(=O)O` [Example 63, 2-methylene-4-oxo-4-(1-(5-(trifluoromethyl)pyrazin-2-yl)cyclobutoxy)butanoic acid], in that order: 50.9 µM and greater than 31.6 µM.
For `C=C(CC(=O)O[C@@H](c1ccc(C(F)(F)F)cc1)C(F)(F)F)C(=O)O` [Example 33, (S)-2-methylene-4-oxo-4-(2,2,2-trifluoro-1-(4-(trifluoromethyl)phenyl)ethoxy)butanoic acid], in that order: greater than 56.2 µM and greater than 63.1 µM.
The corresponding values for `C=C(CC(=O)OC1(c2cc(F)c(C(F)(F)F)c(F)c2)CCC1)C(=O)O` [Example 53, 4-(1-(3,5-difluoro-4-(trifluoromethyl)phenyl)cyclobutoxy)-2-methylene-4-oxobutanoic acid] are 29.7 µM and greater than 100 µM.
